Test results taken from the supplement of paper PMC4862054.

Assays:
Assay in all cases: drug sensitivity score (DSS), CellTox Green (DSS (AUC-based score)); higher = stronger drug effect (viability inhibition or cytotoxicity); extreme values may be limits of the assay
Details in all cases: incubation time: 72 h
CAL-148 = tested on: CAL-148
Method in brief: (§1)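 Using 20 µl of cell suspension per well, breast cancer cell lines were seeded into 384-well plates pre-loaded with compound at 5 concentrations in 10-fold steps across a compound-specific 10,000-fold range. Incubation lasted 72 h, after which CellTox Green fluorescence at 485/520 nm and then CellTiter-Glo luminescence, following 10 min at room temperature, were recorded. Each plate was normalised to 0.1 % DMSO and a positive kill control before the drug sensitivity score was derived from the area under the fitted dose-response curve.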

MDA-MB-453 = tested on: MDA-MB-453
Method in brief: as §1

HCC1143 = tested on: HCC1143
Method in brief: as §1

MDA-MB-436 = tested on: MDA-MB-436
Method in brief: as §1

HCC1599 = tested on: HCC1599
Method in brief: as §1

MDA-MB-468 = tested on: MDA-MB-468
Method in brief: as §1

MDA-MB-231 = tested on: MDA-MB-231
Method in brief: as §1

MCF-10A = tested on: MCF-10A
Method in brief: as §1

DU-4475 = tested on: DU-4475
Method in brief: as §1

CAL-85-1 = tested on: CAL-85-1
Method in brief: as §1

MFM-223 = tested on: MFM-223
Method in brief: as §1

BT-549 = tested on: BT-549
Method in brief: as §1

HDQ-P1 = tested on: HDQ-P1
Method in brief: as §1

CAL-51 = tested on: CAL-51
Method in brief: as §1

CAL-120 = tested on: CAL-120
Method in brief: as §1

HCC1937 = tested on: HCC1937
Method in brief: as §1

BT-474 = tested on: BT-474
Method in brief: as §1

Hs578T = tested on: Hs578T
Method in brief: as §1

SMILES	drug sensitivity score (CAL-148)	drug sensitivity score (MDA-MB-453)	drug sensitivity score (HCC1143)	drug sensitivity score (MDA-MB-436)	drug sensitivity score (HCC1599)	drug sensitivity score (MDA-MB-468)	drug sensitivity score (MDA-MB-231)	drug sensitivity score (MCF-10A)	drug sensitivity score (DU-4475)	drug sensitivity score (CAL-85-1)	drug sensitivity score (MFM-223)	drug sensitivity score (BT-549)	drug sensitivity score (HDQ-P1)	drug sensitivity score (CAL-51)	drug sensitivity score (CAL-120)	drug sensitivity score (HCC1937)	drug sensitivity score (BT-474)	drug sensitivity score (Hs578T)
CC(C)(C)Cn1c(N)nc2ccc(-c3[nH]c(C(C)(C)C)nc3-c3ccc(F)cc3)nc21	0	0	0	2.7	0	0	0.996	0	0	4.77	0	0	0	0	0.748	0	0	–
Cc1c(N)nc([C@H](CC(N)=O)NC[C@H](N)C(N)=O)nc1C(=O)N[C@H](C(=O)N[C@H](C)[C@@H](O)[C@H](C)C(=O)N[C@H](C(=O)NCCc1nc(-c2nc(C(=O)NCCC[S+](C)C)cs2)cs1)[C@@H](C)O)[C@@H](OC1OC(CO)C(O)C(O)C1OC1OC(CO)C(O)C(OC(N)=O)C1O)c1cnc[nH]1 (stereo partly drawn) [Bleomycin]	8.42	0	0	2.42	0	0	4.48	0	0	0.93	0	1.71	0	19.8	0	0	0	–
CCCCCOC(=O)Nc1nc(=O)n([C@@H]2O[C@H](C)[C@@H](O)[C@H]2O)cc1F [Capecitabine]	0	0	0	0	0	0	0	0	0	0	3.74	0	0	0	0	0	0	–
CCN(CC)CCOc1ccc(C(=C(Cl)c2ccccc2)c2ccccc2)cc1 [Clomifene]	0	2.83	0	0	1.4	0	8.18	3.53	1.43	2.27	9.19	0	–	0	1.48	8.71	5.14	7.35
CC(C)C(=O)Nc1ccc([N+](=O)[O-])c(C(F)(F)F)c1 [Flutamide]	–	0	0	0	0	0	0	0	0	0	0	0	0	0	0	0	0	0
COc1cc(Nc2ncc(F)c(Nc3ccc4c(n3)N(COP(=O)(O)O)C(=O)C(C)(C)O4)n2)cc(OC)c1OC [Fostamatinib]	0	0	0	0	0	–	11.1	0	0	6.03	0	11.4	0	3.3	0	0	0	3.65
NC(=O)NO [Hydroxyurea]	0	0	0	–	0	0	0	0	0	0	0	0	0	8.77	0	0	0	–
O=C(O)CC[C@H]1CC[C@@](c2cc(F)ccc2F)(S(=O)(=O)c2ccc(Cl)cc2)CC1 [MK-0752]	–	1.23	0	0	0	0	0	0	0	1.74	0	0	0	0	0	0	0	0
O=C(c1cc(Cc2n[nH]c(=O)c3ccccc23)ccc1F)N1CCN(C(=O)C2CC2)CC1 [Olaparib]	0	0	0	8.45	0	0	1.54	0	0	0	0	0	–	3.38	0	0	0	0
C[C@]12C=CC(=O)C=C1CC[C@@H]1[C@@H]2C(=O)C[C@@]2(C)[C@H]1CC[C@]2(O)C(=O)CO [Prednisone]	0	0	0	0	0	0	0	0	0	0	0	0	0	0	0.113	0	0	–
CN1CCN(c2nc(C3=C(c4c[nH]c5ccccc45)C(=O)NC3=O)c3ccccc3n2)CC1 [Sotrastaurin]	–	0	0	0	0	0	0	0	0	0	0	0	0	0	0	0	0	0
C[C@@H](C(=O)O)c1ccc(-c2ccccc2)c(F)c1 [Tarenflurbil]	0	0	0	0	0	0	0	0.986	0	0	0	0	0	0	0	0	0.00754	–
